Values of other authors, collected in patent publication US7273889B2, “NMDA receptor antagonist formulation with reduced neurotoxicity” (Innovative Drug Delivery Systems, Inc., priority 2002, dated 2007).
Counter-ions that a name gives are not always drawn.

Tests used:
patients = details: use as an anesthetic agent
[1] = test system: spinal cord of the animals; details: multiple dose, intrathecally administered
[2] = at a pH up to 10

Compound: CNC1(c2ccccc2Cl)CCCCC1=O (stereo not drawn) [ketamine hydrochloride]
- occurrence of postoperative confusional states (emergence reactions) (patients): approximately 12% of patients

Compound: CNC1(c2ccccc2Cl)CCCCC1=O (stereo not drawn) [preservative-free ketamine, ketamine]
- neurotoxic effect [1]: without neurotoxic effect

Compound: benzalkonium chloride
- stability [2]: stable at room temperature
